Measured values published in ChEMBL document CHEMBL1136282, “Design and synthesis of small chemical inhibitors containing different scaffolds for lck SH2 domain” (Bioorg Med Chem Lett, 2003).
Square brackets hold non-standard residues; d marks the D form. Peptide text beside a SMILES is read from it. pY = N[C@@H](Cc1ccc(OP(=O)(O)O)cc1)C(=O)O

Each compound was assayed against Tyrosine-protein kinase Lck (Homo sapiens, UniProt P06239) (assay: Inhibition of binding to p56 Lck tyrosine kinase SH2 domain).
Tyrosine-protein kinase Lck, sequence (P06239 whole entry, the tested form may be a part): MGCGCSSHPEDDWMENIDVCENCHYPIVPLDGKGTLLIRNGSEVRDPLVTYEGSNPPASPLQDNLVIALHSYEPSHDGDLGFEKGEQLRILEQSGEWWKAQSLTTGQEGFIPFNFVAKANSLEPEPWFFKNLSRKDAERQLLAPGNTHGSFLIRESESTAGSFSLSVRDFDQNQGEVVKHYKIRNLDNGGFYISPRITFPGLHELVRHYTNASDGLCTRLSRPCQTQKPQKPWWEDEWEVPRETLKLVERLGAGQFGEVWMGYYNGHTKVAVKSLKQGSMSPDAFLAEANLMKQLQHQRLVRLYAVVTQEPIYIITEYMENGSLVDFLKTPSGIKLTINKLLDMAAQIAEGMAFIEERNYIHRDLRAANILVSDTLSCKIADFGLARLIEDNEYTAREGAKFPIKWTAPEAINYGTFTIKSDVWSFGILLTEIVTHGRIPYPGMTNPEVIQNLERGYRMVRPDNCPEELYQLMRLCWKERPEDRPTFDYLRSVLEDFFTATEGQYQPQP

| SMILES | IC50 [µM] |
| --- | --- |
| COC(=O)[C@@H](Cc1ccc(O)c(O)c1)NC(=O)/C=C/c1ccc(O)c(O)c1 | 121 |
| COC(=O)[C@@H](Cc1ccc(O)c(O)c1)NC/C=C/c1ccc(O)c(O)c1 | > 500 |
| O=C(/C=C/c1ccc(O)c(O)c1)O[C@H](Cc1ccc(O)c(O)c1)C(=O)O [ROSMARINIC ACID] | 24 |
| COC(=O)[C@@H](Cc1ccc(O)c(O)c1)NC(=O)NCc1ccc(O)c(O)c1 | 98 |
| COC(=O)[C@@H](Cc1ccc(O)c(O)c1)N(C)C(=O)/C=C/c1ccc(O)c(O)c1 | 149 |
| CC[C@H](C)[C@H](NC(=O)[C@H](CCC(=O)O)NC(=O)[C@H](CCC(=O)O)NC(=O)[C@H](Cc1ccc(OP(=O)(O)O)cc1)NC(C)=O)C(=O)N[C@@H](CCC(=O)O)C(=O)O (Ac-[pY]EEIE-OH) | 1.5 |
| COC(=O)[C@@H](Cc1ccc(O)c(O)c1)/N=C(S)\C=C\c1ccc(O)c(O)c1 | 162 |
| O=C(/C=C/c1ccc(O)c(O)c1)N[C@H](Cc1ccc(O)c(O)c1)C(=O)O | 20 |
